Consider four compounds from patent US9801901B2, “Alginate oligomers for use in overcoming multidrug resistance in bacteria” (priority 2009, dated 2017).

The test system of assay [1] is Staphylococcus aureus (MRSA) U50. The experiment in a line: MIC-assay, Mueller-Hinton broth with G-block alginate, 384-well, OD600 (Table 12). Type of assay: cell-based. As to conditions: MRSA 1040s, U50 MDR, read-out: MIC. The source says: (§1) Minimum inhibitory concentration (MICs) of different antibiotics for strains of Streptococcus oralis and Staphylococcus aureus (MRSA) displaying MDR phenotypes in the presence of varying concentrations of OligoCF-5/20 (0-10%). (MIC values are expressed in μg ml^−1).

The next assay concerns Streptococcus oralis. Described as above. In kind it is cell-based. As to conditions: Streptococcus oralis (5610, V17) MDR, read-out: MIC.
From the text: as §1

Assay [2] relates to Pseudomonas aeruginosa (R22, PSA, V1). The experiment in a line: MIC-assay, Mueller-Hinton broth with G-block alginate, 384-well, OD600.
Assay [3] concerns Acinetobacter baumannii (MDR ACB, Libya, V4). The description is as above.
Assay [4] concerns Pseudomonas aeruginosa CFA 24-1, clinical mucoid strain (R80). The experiment in a line: MIC assay, CAMHB with alginate oligomer, no visible growth. As to conditions: Pseudomonas aeruginosa, Table 1, R80, read-out: MIC. In kind it is cell-based.
Assay [5] concerns V10 (Egypt) Acinetobacter lwoffii. The assay is described as above. In kind it is cell-based. The following applies: Table 5, V10 MDR Acin. lwoff.
Assay [6] deals with V23 1322 Burkholderia cepacia. The assay is described as above. Type of assay: cell-based.
[7] abbreviates: Table 8, G-block (OligoCF-5/20) 0%.
Where [8] appears, read: Table 8, G-block (OligoCF-5/20) 2%.
Setting [9] is: Table 8, G-block (OligoCF-5/20) 6%.
Setting [10] is: Table 8, G-block (OligoCF-5/20) 10%.
Where [11] appears, read: Table 9, G-block (OligoCF-5/20) 0%.
Where [12] appears, read: Table 9, G-block (OligoCF-5/20) 2%.
[13] abbreviates: Table 9, G-block (OligoCF-5/20) 6%.
Where [14] appears, read: Table 9, G-block (OligoCF-5/20) 10%.

Converted amounts (≈) assume the structure as drawn. Where two headings read alike, the source gives them in different places. Marks after values point to notes of the source that are not given here.

For `CC[C@H]1OC(=O)[C@H](C)[C@@H](O[C@H]2C[C@@](C)(OC)[C@@H](O)[C@H](C)O2)[C@H](C)[C@@H](O[C@@H]2O[C@H](C)C[C@H](N(C)C)[C@H]2O)[C@](C)(O)C[C@@H](C)/C(=N\OCOCCOC)[C@H](C)[C@@H](O)[C@]1(C)O` [Roxithromycin], the MIC (in general, the lowest concentration that inhibits growth of the organism) in assay [1] (G-block (OligoCF-5/20) 0%) is > 1020 µg/mL; in assay [1] (G-block (OligoCF-5/20) 2%), 1020 µg/mL (≈ 1220 µM); in assay [1] (G-block (OligoCF-5/20) 6%), 512 µg/mL (≈ 612 µM); in assay [1] (G-block (OligoCF-5/20) 10%), 256 µg/mL (≈ 306 µM); in the assay on Streptococcus oralis (G-block (OligoCF-5/20) 0%), 8 µg/mL (≈ 9.56 µM); with Streptococcus oralis (G-block (OligoCF-5/20) 2%), 8 µg/mL (≈ 9.56 µM). The minimal inhibitory concentration (MIC) is 0.0312 µg/mL (≈ 0.0373 µM) with Streptococcus oralis (G-block (OligoCF-5/20) 6%); 16 µg/mL (≈ 19.1 µM) with Streptococcus oralis (G-block (OligoCF-5/20) 10%); > 512 µg/mL in assay [2] (setting [7]); > 512 µg/mL in assay [2] (setting [8]); 512 µg/mL (≈ 612 µM) in assay [2] (setting [9]); 256 µg/mL (≈ 306 µM) in assay [2] (setting [10]). Moreover, the MIC turned out to be 128 µg/mL (≈ 153 µM) in assay [3] (setting [11]), 32 µg/mL (≈ 38.2 µM) in assay [3] (setting [12]), 16 µg/mL (≈ 19.1 µM) in assay [3] (setting [13]) and 16 µg/mL (≈ 19.1 µM) in assay [3] (setting [14]).
For the compound `CN(C)[C@@H]1C(O)=C(C(N)=O)C(=O)[C@@]2(O)C(O)=C3C(=O)c4c(O)cccc4[C@@](C)(O)[C@H]3[C@H](O)[C@@H]12` [Oxytetracycline], the MIC was found to be 8 µg/mL (≈ 17.4 µM) in assay [4] (OligoCF-5/20 0G); 8 µg/mL (≈ 17.4 µM) in assay [4] (OligoCF-5/20 +2% G); 4 µg/mL (≈ 8.69 µM) in assay [4] (OligoCF-5/20 +6% G); 4 µg/mL (≈ 8.69 µM) in assay [4] (OligoCF-5/20 +10% G); 0.5 µg/mL (≈ 1.09 µM) in assay [5] (Acinetobacter lwoffii, OligoCF-5/20 0G, read-out: MIC); 0.5 µg/mL (≈ 1.09 µM) in assay [5] (OligoCF-5/20 +2% G). For the same compound, the MIC was 0.5 µg/mL (≈ 1.09 µM) in assay [5] (OligoCF-5/20 +6% G); 0.25^† μg/ml in assay [5] (OligoCF-5/20 +10% G); 256 µg/mL (≈ 556 µM) in assay [6] (Burkholderia cepacia, Table 5, V23 MDR Burk cep, OligoCF-5/20 0G, read-out: MIC); > 256 µg/mL in assay [6] (Burkholderia cepacia, Table 6, V23, Experiment 1 (18-03-10), OligoCF-5/20 0G, read-out: MIC); > 256 µg/mL in assay [6] (Burkholderia cepacia, Table 6, V23, Experiment 2 (18-03-10), OligoCF-5/20 0G, read-out: MIC); > 256 µg/mL in assay [6] (Burkholderia cepacia, Table 6, V23, Experiment 3 (19-03-10), OligoCF-5/20 0G, read-out: MIC). In addition, the MIC in assay [6] (Table 5, V23 MDR Burk cep, OligoCF-5/20 +2% G) is given as 128^† μg/ml; in assay [6] (Table 5, V23 MDR Burk cep, OligoCF-5/20 +6% G), 128^† μg/ml; in assay [6] (Table 5, V23 MDR Burk cep, OligoCF-5/20 +10% G) it was 32^† μg/ml; in assay [6] (Table 6, V23, Experiment 1 (18-03-10), OligoCF-5/20 +2% G), 256^† μg/ml; in assay [6] (Table 6, V23, Experiment 1 (18-03-10), OligoCF-5/20 +6% G), 256^† μg/ml; in assay [6] (Table 6, V23, Experiment 1 (18-03-10), OligoCF-5/20 +10% G), 128^† μg/ml. Besides, the MIC was >256 µg/mL in assay [6] (Table 6, V23, Experiment 2 (18-03-10), OligoCF-5/20 +2% G); 256^† μg/ml in assay [6] (Table 6, V23, Experiment 2 (18-03-10), OligoCF-5/20 +6% G); 128^† μg/ml in assay [6] (Table 6, V23, Experiment 2 (18-03-10), OligoCF-5/20 +10% G); 256^† μg/ml in assay [6] (Table 6, V23, Experiment 3 (19-03-10), OligoCF-5/20 +2% G); 256^† μg/ml in assay [6] (Table 6, V23, Experiment 3 (19-03-10), OligoCF-5/20 +6% G); 256^† μg/ml in assay [6] (Table 6, V23, Experiment 3 (19-03-10), OligoCF-5/20 +10% G). Further, the MIC in assay [1] (G-block (OligoCF-5/20) 0%) was 2 µg/mL (≈ 4.34 µM); in assay [1] (G-block (OligoCF-5/20) 2%) it was 2 µg/mL (≈ 4.34 µM); in assay [1] (G-block (OligoCF-5/20) 6%), 1 µg/mL (≈ 2.17 µM); in assay [1] (G-block (OligoCF-5/20) 10%) it was 0.5 µg/mL (≈ 1.09 µM); in the assay with Streptococcus oralis (G-block (OligoCF-5/20) 0%), < 0.25 µg/mL; in the assay with Streptococcus oralis (G-block (OligoCF-5/20) 2%), < 0.25 µg/mL. In addition, the minimal inhibitory concentration (MIC) in the assay on Streptococcus oralis (G-block (OligoCF-5/20) 6%) is 0.5 µg/mL (≈ 1.09 µM); with Streptococcus oralis (G-block (OligoCF-5/20) 10%) it was < 0.25 µg/mL; in assay [2] (setting [7]) it was > 128 µg/mL; in assay [2] (setting [8]), > 128 µg/mL; in assay [2] (setting [9]), > 128 µg/mL; in assay [2] (setting [10]), > 128 µg/mL. For the same compound, the MIC in assay [3] (setting [11]) was found to be 2 µg/mL (≈ 4.34 µM); in assay [3] (setting [12]), 2 µg/mL (≈ 4.34 µM); in assay [3] (setting [13]), 2 µg/mL (≈ 4.34 µM); in assay [3] (setting [14]) it was 1 µg/mL (≈ 2.17 µM).
For the compound `C[C@@H](O)[C@H]1C(=O)N2C(C(=O)O)=C(SCCN=CN)C[C@H]12` [Imipenem], the MIC is 0.0625 µg/mL (≈ 0.209 µM) in assay [1] (G-block (OligoCF-5/20) 0%); 0.0625 µg/mL (≈ 0.209 µM) in assay [1] (G-block (OligoCF-5/20) 2%); 0.0312 µg/mL (≈ 0.104 µM) in assay [1] (G-block (OligoCF-5/20) 6%); < 0.0312 µg/mL in assay [1] (G-block (OligoCF-5/20) 10%); < 0.0312 µg/mL in the assay with Streptococcus oralis (G-block (OligoCF-5/20) 0%); 16 µg/mL (≈ 53.4 µM) in the assay on Streptococcus oralis (G-block (OligoCF-5/20) 2%). Also, the MIC with Streptococcus oralis (G-block (OligoCF-5/20) 6%) was 1 µg/mL (≈ 3.34 µM); with Streptococcus oralis (G-block (OligoCF-5/20) 10%), < 0.0312 µg/mL; in assay [2] (setting [7]), 128 µg/mL (≈ 428 µM); in assay [2] (setting [8]), 128 µg/mL (≈ 428 µM); in assay [2] (setting [9]), 64 µg/mL (≈ 214 µM); in assay [2] (setting [10]) it was 16 µg/mL (≈ 53.4 µM). The MIC in assay [3] (setting [11]) is 2 µg/mL (≈ 6.68 µM); in assay [3] (setting [12]), 2 µg/mL (≈ 6.68 µM); in assay [3] (setting [13]), 2 µg/mL (≈ 6.68 µM); in assay [3] (setting [14]), < 2 µg/mL.
As for `CC[C@H]1OC(=O)[C@H](C)[C@@H](O[C@H]2C[C@@](C)(OC)[C@@H](O)[C@H](C)O2)[C@H](C)[C@@H](O[C@@H]2O[C@H](C)C[C@H](N(C)C)[C@H]2O)[C@](C)(O)C[C@@H](C)[C@@H]2N[C@@H](COCCOC)O[C@H]([C@H]2C)[C@]1(C)O` [Dirithromycin], the minimum inhibitory concentration (MIC) in assay [1] (G-block (OligoCF-5/20) 0%) stood at 1020 µg/mL (≈ 1230 µM); in assay [1] (G-block (OligoCF-5/20) 2%), 512 µg/mL (≈ 613 µM); in assay [1] (G-block (OligoCF-5/20) 6%) it was 512 µg/mL (≈ 613 µM); in assay [1] (G-block (OligoCF-5/20) 10%), 256 µg/mL (≈ 307 µM); with Streptococcus oralis (G-block (OligoCF-5/20) 0%) it was 4 µg/mL (≈ 4.79 µM); with Streptococcus oralis (G-block (OligoCF-5/20) 2%), 4 µg/mL (≈ 4.79 µM). The MIC is < 0.0312 µg/mL in the assay with Streptococcus oralis (G-block (OligoCF-5/20) 6%); 0.0312 µg/mL (≈ 0.0374 µM) in the assay on Streptococcus oralis (G-block (OligoCF-5/20) 10%); > 512 µg/mL in assay [2] (setting [7]); > 512 µg/mL in assay [2] (setting [8]); 512 µg/mL (≈ 613 µM) in assay [2] (setting [9]); 256 µg/mL (≈ 307 µM) in assay [2] (setting [10]). The minimal inhibitory concentration (MIC) in assay [3] (setting [11]) is 64 µg/mL (≈ 76.6 µM); in assay [3] (setting [12]), 8 µg/mL (≈ 9.58 µM); in assay [3] (setting [13]), 2 µg/mL (≈ 2.39 µM); in assay [3] (setting [14]) it was < 1 µg/mL.
